Source: PMC8703934, “Lytic Polysaccharide Monooxygenase from Talaromyces amestolkiae with an Enigmatic Linker-like Region: The Role of This Enzyme on Cellulose Saccharification” (International Journal of Molecular Sciences, 2021)

Tests used:
TamAA9A-CD = target: T1, TamAA9A-CD (Talaromyces amestolkiae, UniProt A0A364LE17); experiment: spectrophotometric oxidation to coerulignone at […] nm, Michaelis-Menten fit; format: biochemical; conditions: 2 mM H2O2 as co-substrate; copper-saturated enzyme; 100 mM sodium phosphate pH 6; substrate range 1.25-100 mM
T1 construct: gene BHQ10_010049; native signal peptide (removed), no tag mentioned; secreted from Pichia pastoris X-33; theoretical 24 kDa, about 30 kDa glycosylated; copper-saturated; mature N-terminus HGYVQN from primer
T1 sequence (A0A364LE17 entry or part of it): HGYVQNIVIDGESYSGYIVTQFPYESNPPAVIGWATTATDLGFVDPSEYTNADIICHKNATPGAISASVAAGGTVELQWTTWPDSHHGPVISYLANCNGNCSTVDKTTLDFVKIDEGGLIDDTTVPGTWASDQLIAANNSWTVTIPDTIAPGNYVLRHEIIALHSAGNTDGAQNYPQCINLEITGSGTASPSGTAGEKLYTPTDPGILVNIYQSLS

TamAA9A-CBM = target: T2, TamAA9A-CBM (Talaromyces amestolkiae, UniProt A0A364LE17); experiment: as above; format: biochemical; conditions: 2 mM H2O2 as co-substrate; copper-saturated enzyme; 100 mM sodium phosphate pH 6; substrate range 1.25-100 mM; printed kcat/Km (0.003) does not match printed kcat and Km
T2 construct: gene BHQ10_010049; native signal peptide (removed); secreted from Pichia pastoris X-33; theoretical 34 kDa, 75-100 kDa glycosylated; copper-saturated; with Beta-glucosidase BGL-2 (CBM1 domain only)
T2 sequence (A0A364LE17 entry or part of it): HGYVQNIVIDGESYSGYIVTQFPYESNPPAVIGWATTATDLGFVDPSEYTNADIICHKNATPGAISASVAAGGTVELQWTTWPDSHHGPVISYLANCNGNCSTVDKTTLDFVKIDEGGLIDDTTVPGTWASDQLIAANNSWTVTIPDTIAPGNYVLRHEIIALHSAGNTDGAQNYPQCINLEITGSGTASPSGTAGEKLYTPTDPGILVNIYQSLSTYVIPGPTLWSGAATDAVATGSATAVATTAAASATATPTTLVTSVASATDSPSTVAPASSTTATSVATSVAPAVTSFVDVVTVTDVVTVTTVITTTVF

- Km (TamAA9A-CD): 87.7 ± 0.7 mM
- Km (TamAA9A-CBM): 85.68 ± 0.7 mM
SMILES: COc1cccc(OC)c1O [2,6-DMP, 2,6-dimethoxyphenol]
